We go through 3 compounds from patent publication US20170128366A1, “PHARMACEUTICAL FORMULATIONS OF CHELATING AGENTS AS A METAL REMOVAL TREATMENT SYSTEM” (ZONEONE PHARMA, INC., priority 2013, published 2017).

For data set [1] the following is noted: in vivo, cited from earlier work.
The conditions of data set [2]: cited from earlier work.
For data set [3] the following is noted: patients who take deferasirox; cited from earlier work.
The nature of data set [4]: Active loading of DFO or doxorubicin into liposomes without membrane modifier, effect of temperature. Format: physicochemical. As to conditions: 10 min, pH 6.5. The procedure: Active loading of DFO using no ethanol (or other membrane modifier) was done using liposomes composed of either a fluid-phase lipid (egg PC) or a gel-phase lipid (HSPC), specifically, egg PC liposomes (3:2 Chol, 0.5 M ammonium sulfate, 90 nm) or HSPC liposomes (3:2 Chol, 250 mM ammonium sulfate, 90 nm) were remote loaded with DFO at a temperature range of 40-120° C. (pH 8.0) for either 10 min or 30 min. […] The target drug to lipid ratio was 170 g DFO/mol PL. After the DFO was loaded the tubes were rapidly cooled to room temperature. Unencapsulated DFO was removed by dialysis at 4° C., and drug/PL concentrations were analyzed by HPLC as described in paragraph [0108].
This experiment was done in the absence of a chemical modifier. Liposomes were composed of either a fluid-phase lipid (egg PC) or a gel-phase lipid (HSPC), specifically, egg PC liposomes (3:2 Chol, 0.5 M ammonium sulfate, 90 nm) or HSPC liposomes (3:2 Chol, 0.25 M ammonium sulfate, 90 nm) were remote loaded with DFO or doxorubicin at a temperature range between 40-120° C. for 10 min. Doxorubicin concentration in the loading solution was 5 mg/mL and a target drug to lipid ratio of 170 g DFO/mol PL. DFO was loaded at pH 8 while doxorubicin was loaded at pH 6.5. Unencapsulated drug was removed by dialysis at 4° C., and drug/PL concentrations were analyzed by HPLC as described in paragraph [0108].

Consider `CC(=O)N(O)CCCCCNC(=O)CCC(=O)N(O)CCCCCNC(=O)CCC(=O)N(O)CCCCCN` [DFO, Deferoxamine], for which, in data set [1], the “absorption after oral administration / from the gastro-intestinal tract” value is “poorly absorbed” and the “clearance from the circulation” value is reported as “rapidly cleared”. Also, in data set [2], the water solubility result is “very water-soluble”.
Regarding `O=C(O)c1ccc(-n2nc(-c3ccccc3O)nc2-c2ccccc2O)cc1` [deferasirox], in data set [1], the “absorption after oral administration / from the gastro-intestinal tract” value is “well absorbed” and the “clearance from the circulation” value was “cleared from the circulation slowly”. Moreover, in data set [3], the “risk of renal and hepatic failure” value is “higher risk”. Further, in data set [2], the solubility result was “less than 2 mg/mL” and the water solubility result is “very low water-solubility”.
On to `COc1cccc2c1C(=O)c1c(O)c3c(c(O)c1C2=O)C[C@@](O)(C(=O)CO)C[C@@H]3O[C@H]1C[C@H](N)[C@H](O)[C@H](C)O1` [doxorubicin], for which the active loading efficiency in data set [4] (HSPC liposomes (3:2 Chol, 0.25 M ammonium sulfate), 60° C. and above) is recorded as over 90%. Further, the active loading result in data set [4] (HSPC liposomes, 40° C.) was “loaded very poorly”; in data set [4] (egg PC liposomes (3:2 Chol, 0.5 M ammonium sulfate), 30-110° C.), “high efficiency”.
